Test results published in patent publication EP0234178A1, “New 8-substituted derivatives of an anhydrooctonic acid, methods for their preparation, pharmaceutical preparations containing these and intermediates” (Astra Läkemedel Aktiebolag, priority 1985, dated 1987).

Experiments:
Gram-negative bacteria = experiment: Test I Bactericidal activity (viable count after exposure to drug); type: cell-based; settings: final concentration of ImM, 15 min exposure, number of viable bacteria
Description: A range of Gram-negative bacteria were grown at 37°C in aerobic shake culture in nutrient broth for 16 h. O.I ml of these cultures were each inoculated into 5 ml of fresh broth and the cultures incubated further, until the bacteria reached mid-logarithmic phase, when the culture was harvested by centrifugation and resuspended in Basal Medium 2 (J Bacteriol 117 (1974) 3O2-311) to an OD 1cm 620 mm = 0.2 (equivalent to 10^8 bacteria/ml). Test compound was added to the bacterial suspension to give a final concentration of ImM. After 15 min exposure to drug the number of viable bacteria was determined by serial dilution in sterile phosphate buffered saline (PBS), plating out onto McConkey agar plates and incubating for 16 h at 37°C.

[1] = test system: S. typhimurium AG701 i50 (KdsA^ts); experiment: Test III Inhibition of incorporation of 3H-arabinose-5-phosphate into LPS; type: cell-based, Salmonella typhimurium; settings: S. typhimurium AG701 i50, 30°C, samples after 10 min
Description: Arabinose-5-phosphate is a precursor of KDO in enteric bacteria. KdsA mutants of Salmonella typhimurium rapidly take up exogenous arabinose-5-phosphate and convert it to KDO which then appears exclusively in LPS (J. Biol. Chem. 255 (1980) 4257).
S. typhimurium AG701 i50 (KdsA^ts) was grown overnight at 30°C in minimal Medium (Eur. J. Biochem. 107 (1980) 145-153) supplemented with 1% glycerol and 0.01 mM D-fucose. The next day 0.1 ml of overnight culture was added to fresh medium and the culture grown at 30°C until mid logarithmic phase - (OD [formula] mm = 0.2) when 50 µl of "H-arabinose-5-phosphate (Amersham; specific activity 72 µCi/ml)-was added. After 10 min 0.45 ml samples were taken, the bacteria colleced by filtration (Whatman GF/F glass fibre filter) and washed with 6 ^x Iml PBS followed by 100 ml boiling water. This procedure ensures that all radioactive counts recorded represent arabinose-5-phosphate incorporated into LPS as KDO (J. Biol. Chem. 255 (1980) 4257).

C[C@H](N)C(=O)N[C@@H](C)C(=O)NC[C@@H](O)[C@H]1O[C@H](C(=O)O)C[C@@H](O)[C@H]1O [Compound 6, N-(L-alanyl-L-alanyl)-8-amino-2,6-anhydro-3,8-dideoxy-D-glycero-D-talo-octonic acid]
inhibitory action against the bacteria (Gram-negative bacteria): inhibitory action
incorporation of arabinose-5-phosphate into LPS / denovo LPS biosynthesis [1]: markedly inhibits
